According to patent US20100120730A1, “6-BENZYL-2,3,4,7-TETRAHYDRO-INDOLO [2,3-C] QUINOLINE COMPOUNDS USEFUL AS PDE5 INHIBITORS” (NYCOMED GmbH, priority 2007, published 2010):

What was measured:
[1] = biological target: T1, human PDE5 (Homo sapiens, UniProt O76074); assay: Inhibition of PDE5 activity (modified SPA test, human platelet lysate); assay type: biochemical; conditions: PDE5-containing human platelet lysate, 0.5 μM cGMP substrate, 37° C.
T1 construct: from tissue; host or cells: human platelets from fresh donor blood (10,000 g supernatant of sonified platelets)
Method: As a source for human PDE5, platelets were used. For that purpose, 150 ml fresh blood from human donors anticoagulated with citrate [final concentration 0.3% (w/v)] was centrifuged at 200 g for 10 min to obtain the so-called platelet-rich-plasma (PRP) as a supernatant. 1/10 volume of ACD solution (85 mM Na3-citrate, 111 mM D-glucose, 71 mM citric acid, pH 4.4) was added to 9/10 volume of PRP. After centrifugation (1,400 g, 10 min) the cell pellet was resuspended in 3 ml homogenization buffer (NaCl 140 mM, KCl 3.8 mM, EGTA 1 mM, MgCl2 1 mM, Tris-HCl 20 mM, beta-mercaptoethanol 1 mM, pH 8.2) plus protease-inhibitor mix giving rise to the final concentrations of 0.5 mM Pefablock (Roche), 10 μM Leupeptin, 5 μM Trypsininhibitor, 2 mM Benzamidin and 10 μM Pepstatin A. The suspension was sonified and thereafter centrifuged for 15 min at 10,000 g. The resulting supernatant (platelet lysate) was used for enzymatic testings.
PDE5A1 activity is inhibited by the compounds of the invention in a modified SPA (scintillation proximity assay) test, supplied by Amersham Biosciences (see procedural instructions “phosphodiesterase [3H]cAMP SPA enzyme assay, code TRKQ 7090”), carried out in 96-well microtitre plates (MTP's). The test volume is 100 μl and contains 20 mM Tris buffer (pH 7.4), 0.1 mg of BSA (bovine serum albumin)/ml, 5 mM Mg^2+, 1 μM motapizone, 10 nM PDE2 inhibitor BAY-60-7550, 0.5 μM cGMP (including about 50,000 cpm of [3H]cGMP as a tracer), 1 μl of the respective compound dilution in dimethylsulfoxide (DMSO) and sufficient PDE5-containing platelet lysat (10,000×g supernatant, see above) to ensure that 10-20 wt % of the cGMP is converted under the said experimental conditions. […] After a preincubation of 5 min at 37° C., the reaction was started by adding the substrate (cGMP) and the assay was incubated for a further 15 min; after that, it was stopped by adding SPA beads (50 μl). In accordance with the manufacturer's instructions, the SPA beads had previously been resuspended in water, but were then diluted 1:3 (v/v) in water; the diluted solution also contains 3 mM 8-methoxymethyl-3-isobutyl-1-methylxanthine (IBMX) to ensure a complete PDE activity stop. After the beads have been sedimented (>30 min), the MTP's are analyzed in commercially available luminescence detection devices. The corresponding IC50 values of the compounds for the inhibition of PDE activity are determined from the concentration-effect curves by means of non-linear regression.

| SMILES | melting point [°C] | IC50 [1] [nM] |
| --- | --- | --- |
| COc1ccc(Cc2nc3c(c4c2[nH]c2ccccc24)C(O)CC(C)(C)C3)cc1 (centres unmarked) [Example 47, 6-(4-Methoxy-benzyl)-3,3-dimethyl-2,3,4,7-tetrahydro-1H-indolo[2,3-c]quinolin-1-ol] | 146 | 5.37 |
| COc1ccc(Cc2nc3c(c4c2[nH]c2ccccc24)C(O)CCC3)cc1 (centres unmarked) [Example 48, 6-(4-Methoxy-benzyl)-2,3,4,7-tetrahydro-1H-indolo[2,3-c]quinolin-1-ol] | 204 | 13.2 |
| OC1CCCc2nc(Cc3ccccc3)c3[nH]c4ccccc4c3c21 (centres unmarked) [Example 49, 6-Benzyl-2,3,4,7-tetrahydro-1H-indolo[2,3-c]quinolin-1-ol] | 211 | 66.1 |
| CC1(C)Cc2nc(Cc3ccc(O)cc3)c3[nH]c4ccccc4c3c2C(O)C1 (centres unmarked) [Example 51, 6-(4-Hydroxy-benzyl)-3,3-dimethyl-2,3,4,7-tetrahydro-1H-indolo[2,3-c]quinolin-1-ol] | 212 | 5.5 |
| COc1ccc(Cc2c3[nH]c4ccccc4c3c3c([n+]2[O-])CC(C)(C)CC3O)cc1 (centres unmarked) [Example 52, 6-(4-Methoxy-benzyl)-3,3-dimethyl-5-oxy-2,3,4,7-tetrahydro-1H-indolo[2,3-c]quinolin-1-ol] | 185 | 20.4 |
| CC1(C)Cc2nc(Cc3ccc(OC(F)(F)F)cc3)c3[nH]c4ccccc4c3c2C(O)C1 (centres unmarked) [Example 53, 3,3-Dimethyl-6-(4-trifluoromethoxy-benzyl)-2,3,4,7-tetrahydro-1H-indolo[2,3-c]quinolin-1-ol] | 117 to 119 | 89.1 |
| CC1(C)Cc2nc(Cc3ccc(N)cc3)c3[nH]c4ccccc4c3c2C(O)C1 (centres unmarked) [Example 54, 6-(4-Amino-benzyl)-3,3-dimethyl-2,3,4,7-tetrahydro-1H-indolo[2,3-c]quinolin-1-ol] | 206 to 208 | 26.9 |
| CCOc1ccc(Cc2nc3c(c4c2[nH]c2ccccc24)C(O)CC(C)(C)C3)cc1 (centres unmarked) [Example 55, 6-(4-Ethoxy-benzyl)-3,3-dimethyl-2,3,4,7-tetrahydro-1H-indolo[2,3-c]quinolin-1-ol] | 182 to 184 | 25.1 |
| CC1(C)Cc2nc(Cc3cccc([N+](=O)[O-])c3)c3[nH]c4ccccc4c3c2C(O)C1 (centres unmarked) [Example 56, 3,3-Dimethyl-6-(3-nitro-benzyl)-2,3,4,7-tetrahydro-1H-indolo[2,3-c]quinolin-1-ol] | 228 to 230 | 191 |
| CC1(C)Cc2nc(Cc3cccc(N)c3)c3[nH]c4ccccc4c3c2C(O)C1 (centres unmarked) [Example 57, 6-(3-Amino-benzyl)-3,3-dimethyl-2,3,4,7-tetrahydro-1H-indolo[2,3-c]quinolin-1-ol] | 225 to 227 | 4.07 |
| CC(C)c1ccc(Cc2nc3c(c4c2[nH]c2ccccc24)C(O)CC(C)(C)C3)cc1 (centres unmarked) [Example 58, 6-(4-Isopropyl-benzyl)-3,3-dimethyl-2,3,4,7-tetrahydro-1H-indolo[2,3-c]quinolin-1-ol] | 112 to 114 | 148 |
| CCC(=O)Nc1ccc(Cc2nc3c(c4c2[nH]c2ccccc24)C(O)CC(C)(C)C3)cc1 (centres unmarked) [Example 60, N-[4-(1-Hydroxy-3,3-dimethyl-2,3,4,7-tetrahydro-1H-indolo[2,3-c]quinolin-6-ylmethyl)-phenyl]-propionamide] | 165 to 168 | 70.8 |
| OC1CCCc2nc(Cc3ccc4c(c3)OCO4)c3[nH]c4ccccc4c3c21 (centres unmarked) [Example 61, 6-Benzo[1,3]dioxol-5-ylmethyl-2,3,4,7-tetrahydro-1H-indolo[2,3-c]quinolin-1-ol] | 120 to 123 | 7.24 |
| CC1(C)Cc2nc(Cc3cccc(Br)c3)c3[nH]c4ccccc4c3c2C(O)C1 (centres unmarked) [Example 62, 6-(3-Bromo-benzyl)-3,3-dimethyl-2,3,4,7-tetrahydro-1H-indolo[2,3-c]quinolin-1-ol] | 118 to 125 | 50.1 |
| CC(=O)Nc1ccc(Cc2nc3c(c4c2[nH]c2ccccc24)C(O)CC(C)(C)C3)cc1 (centres unmarked) [Example 63, N-[4-(1-Hydroxy-3,3-dimethyl-2,3,4,7-tetrahydro-1H-indolo[2,3-c]quinolin-6-ylmethyl)-phenyl]-acetamide] | 195 to 197 | 46.8 |
| CC1(C)Cc2nc(Cc3ccc(F)cc3)c3[nH]c4ccccc4c3c2C(O)C1 (centres unmarked) [Example 64, 6-(4-Fluoro-benzyl)-3,3-dimethyl-2,3,4,7-tetrahydro-1H-indolo[2,3-c]quinolin-1-ol] | 187 to 189 | 28.8 |
| CC1(C)Cc2nc(Cc3ccc(F)c(F)c3)c3[nH]c4ccccc4c3c2C(O)C1 (centres unmarked) [Example 66, 6-(3,4-Difluoro-benzyl)-3,3-dimethyl-2,3,4,7-tetrahydro-1H-indolo[2,3-c]quinolin-1-ol] | 121 to 128 | 16.6 |
| CC1(C)Cc2nc(Cc3cc(F)cc(F)c3)c3[nH]c4ccccc4c3c2C(O)C1 (centres unmarked) [Example 67, 6-(3,5-Difluoro-benzyl)-3,3-dimethyl-2,3,4,7-tetrahydro-1H-indolo[2,3-c]quinolin-1-ol] | 117 to 123 | 7.94 |
| CC(=O)Nc1ccc(Cc2nc3c(c4c2[nH]c2ccccc24)C(O)CCC3)cc1 (centres unmarked) [Example 69, N-[4-(1-Hydroxy-2,3,4,7-tetrahydro-1H-indolo[2,3-c]quinolin-6-ylmethyl)-phenyl]-acetamide] | 195 to 197 | 302 |
| CC1(C)Cc2nc(Cc3ccc(NC(N)=O)cc3)c3[nH]c4ccccc4c3c2C(O)C1 (centres unmarked) [Example 70, [4-(1-Hydroxy-3,3-dimethyl-2,3,4,7-tetrahydro-1H-indolo[2,3-c]quinolin-6-ylmethyl)-phenyl]-urea] | 236 to 238 | 22.9 |
| COc1ccc(Cc2nc3c(c4c2[nH]c2ccccc24)C(O)CCC3)cc1F (centres unmarked) [Example 71, 6-(3-Fluoro-4-methoxy-benzyl)-2,3,4,7-tetrahydro-1H-indolo[2,3-c]quinolin-1-ol] | 118 to 120 | 2.51 |
| COc1c(F)cc(Cc2nc3c(c4c2[nH]c2ccccc24)C(O)CC(C)(C)C3)cc1F (centres unmarked) [Example 73, 6-(3,5-Difluoro-4-methoxy-benzyl)-3,3-dimethyl-2,3,4,7-tetrahydro-1H-indolo[2,3-c]quinolin-1-ol] | 131 to 133 | 0.2 |
| COc1ccc(Cc2nc3c(c4c2[nH]c2ccccc24)C(O)CC(C)(C)C3)c(F)c1F (centres unmarked) [Example 74, 6-(2,3-Difluoro-4-methoxy-benzyl)-3,3-dimethyl-2,3,4,7-tetrahydro-1H-indolo[2,3-c]quinolin-1-ol] | 197 to 198 | 0.324 |
| NC(=O)Nc1ccc(Cc2nc3c(c4c2[nH]c2ccccc24)C(=O)CCC3)cc1 [Example 76, [4-(1-Oxo-2,3,4,7-tetrahydro-1H-indolo[2,3-c]quinolin-6-ylmethyl)-phenyl]-urea] | 232 to 234 | 41.7 |
| COc1ccc(Cc2nc3c(c4c2[nH]c2ccccc24)CCC(C)(C)C3)cc1 [Example 77, 6-(4-Methoxy-benzyl)-3,3-dimethyl-2,3,4,7-tetrahydro-1H-indolo[2,3-c]quinoline] | 158 | 6.31 |
| COc1ccc(Cc2c3[nH]c4ccccc4c3c3c([n+]2[O-])CC(C)(C)CC3=O)cc1 [Example 78, 6-(4-Methoxy-benzyl)-3,3-dimethyl-5-oxy-2,3,4,7-tetrahydro-indolo[2,3-c]quinolin-1-one] | 202 | 15.5 |
| COc1ccc(Cc2nc3c(c4c2[nH]c2ccccc24)[C@@H](O)CC(C)(C)C3)cc1F [Example 79, (S)-6-(3-Fluoro-4-methoxy-benzyl)-3,3-dimethyl-2,3,4,7-tetrahydro-1H-indolo[2,3-c]quinolin-1-ol] | 164 to 166 | 0.794 |
| COc1ccc(Cc2nc3c(c4c2[nH]c2ccccc24)[C@H](O)CC(C)(C)C3)cc1 [Example 80, (R)-6-(4-Methoxy-benzyl)-3,3-dimethyl-2,3,4,7-tetrahydro-1H-indolo[2,3-c]quinolin-1-ol] | 118 to 120 | 100 |
